Laboratory results taken from ChEMBL document CHEMBL1687939 (J Med Chem, 2011).
pKi: −log10 of the molar value. The source made the active and inactive calls. The rule behind the calls is not given here.

Columns and labels:
Carbonic anhydrase 9 = Carbonic anhydrase 9 (Homo sapiens, UniProt Q16790)
Description: Inhibition of tumor-associated human carbonic anhydrase 9 preincubated for 15 min by CO2 hydration assay

Mus musculus [1] = experiment: Toxicity in BALB/c mouse assessed as body weight loss at 15 to 45 mg/kg, ip qd administered as 3 doses on alternate days; format: organism-based; design: dose 15-45 mg/kg, route intraperitoneal; settings: in vivo
4T1 [2] = experiment: Antimetastatic activity against mouse 4T1 cells expressing luciferase xenografted in BALB/c mouse assessed as limiting colonization of the cells in the lungs at 15 to 45 mg/kg, ip administered as 3 doses on alternate days measured 24 hrs post last dose by bioluminescent technique relative to control; format: functional, organism-based
Carbonic anhydrase 12 = Carbonic anhydrase 12 (Homo sapiens, UniProt O43570)
Description: Inhibition of tumor-associated human carbonic anhydrase 12 preincubated for 15 min by CO2 hydration assay

Mus musculus [3] = experiment: Toxicity in BALB/c mouse assessed as body weight loss at 15 to 30 mg/kg, ip qd for 5 days; format: organism-based; design: dose 15-30 mg/kg, route intraperitoneal; settings: in vivo, 120 h
4T1 [4] = experiment: Antimetastatic activity against mouse 4T1 cells expressing luciferase xenografted in BALB/c mouse assessed as reduction in metastasic burden in lungs at 15 to 30 mg/kg, ip qd administered 24 hrs after challenge for 5 days measured 24 hrs post last dose by bioluminescent technique relative to control; format: functional, organism-based
Carbonic anhydrase 1 = Carbonic anhydrase 1 (Homo sapiens, UniProt P00915)
Sequence of Carbonic anhydrase 1 (P00915 whole entry): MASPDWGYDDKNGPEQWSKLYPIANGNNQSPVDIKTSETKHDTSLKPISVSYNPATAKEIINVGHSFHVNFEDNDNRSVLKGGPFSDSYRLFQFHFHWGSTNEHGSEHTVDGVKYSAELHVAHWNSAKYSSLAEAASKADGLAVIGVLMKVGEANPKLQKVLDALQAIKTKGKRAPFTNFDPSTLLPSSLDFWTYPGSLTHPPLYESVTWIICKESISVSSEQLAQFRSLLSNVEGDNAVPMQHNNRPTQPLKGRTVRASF
Description: Inhibition of human cytosolic carbonic anhydrase 1 preincubated for 15 min by CO2 hydration assay

Sequence of Carbonic anhydrase 12 (O43570 whole entry): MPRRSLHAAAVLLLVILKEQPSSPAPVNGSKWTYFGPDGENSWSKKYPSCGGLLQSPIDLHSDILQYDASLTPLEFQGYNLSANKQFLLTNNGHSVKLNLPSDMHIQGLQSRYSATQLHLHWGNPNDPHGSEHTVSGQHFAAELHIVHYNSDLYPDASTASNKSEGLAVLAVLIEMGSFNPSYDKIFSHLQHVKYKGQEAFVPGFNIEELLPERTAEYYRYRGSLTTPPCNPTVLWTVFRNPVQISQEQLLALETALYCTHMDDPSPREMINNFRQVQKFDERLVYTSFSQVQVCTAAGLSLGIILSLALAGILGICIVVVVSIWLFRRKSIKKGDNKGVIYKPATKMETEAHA

Compound	pKi (Carbonic anhydrase 9)	pKi (Carbonic anhydrase 12)	other results
NS(=O)(=O)c1ccc(NC(=O)Nc2cccc([N+](=O)[O-])c2)cc1	9.05	–	Activity (Mus musculus [1]): Non-toxic; Activity (4T1 [2]): Dose-dependent effect
CC(=O)c1ccc(NC(=O)Nc2ccc(S(N)(=O)=O)cc2)cc1	–	8.34	Activity (Mus musculus [3]): Non-toxic; Activity (4T1 [4]): inactive
COc1ccccc1NC(=O)Nc1ccc(S(N)(=O)=O)cc1	6.33	7.21	pKi (Carbonic anhydrase 1): 7.04
CCCCOc1ccc(NC(=O)Nc2ccc(S(N)(=O)=O)cc2)cc1	9.10	8.60	–
NS(=O)(=O)c1ccc(NC(=O)Nc2ccc(Oc3ccccc3)cc2)cc1	7.16	8.15	pKi (Carbonic anhydrase 1): 6.22
COc1ccc(NC(=O)Nc2ccc(S(N)(=O)=O)cc2)c(C)c1	–	8.22	–
N#Cc1ccc(NC(=O)Nc2ccc(S(N)(=O)=O)cc2)cc1	8.22	8.19	pKi (Carbonic anhydrase 1): 7.24
CCCCc1ccc(NC(=O)Nc2ccc(S(N)(=O)=O)cc2)cc1	6.42	7.55	–
NS(=O)(=O)c1ccc(NC(=O)Nc2ccc(Br)cc2)cc1	7.16	8.10	–
NS(=O)(=O)c1ccc(NC(=O)Nc2ccc(I)cc2)cc1	7.61	8.37	–
CC(C)c1ccc(NC(=O)Nc2ccc(S(N)(=O)=O)cc2)cc1	6.27	7.30	–
CC(C)c1ccccc1NC(=O)Nc1ccc(S(N)(=O)=O)cc1	9.30	8.38	–
N#Cc1ccccc1NC(=O)Nc1ccc(S(N)(=O)=O)cc1	9.52	8.34	pKi (Carbonic anhydrase 1): 7.96
NS(=O)(=O)c1ccc(NC(=O)Nc2ccc(Cl)cc2)cc1	–	8.28	–
